Reference: ChEMBL document CHEMBL5614394, “Novel pleuromutilin derivatives conjugated with phenyl-sulfide and boron-containing moieties as potent antibacterial agents against antibiotic-resistant bacteria” (Eur J Med Chem, 2024)
≈ marks a conversion by molar mass, not a printed value.

Columns and labels:
Staphylococcus aureus = experiment: Antibacterial activity against Staphylococcus aureus ATCC 29213 assessed as inhibition of visible growth of bacteria incubated for 24 hrs by CLSI protocol based broth-dilution method; type: functional
[1] = system: Staphylococcus epidermidis; experiment: Antibacterial activity against Staphylococcus epidermidis ATCC 12228 assessed as inhibition of visible growth of bacteria incubated for 24 hrs by CLSI protocol based broth-dilution method; type: functional

Compound	MIC (Staphylococcus aureus) [µg/mL]	MIC [1] [µg/mL]
C=C[C@]1(C)C[C@@H](OC(=O)CSc2cccc(NC(=O)c3cc(B(O)O)ccc3OC)c2)[C@]2(C)[C@H](C)CC[C@]3(CCC(=O)[C@H]32)[C@@H](C)[C@@H]1O	0.031 (≈ 0.0467 µM)	0.031 (≈ 0.0467 µM)
C=C[C@]1(C)C[C@@H](OC(=O)CSc2ccc(NC(=O)c3cc(B(O)O)ccc3F)cc2)[C@]2(C)[C@H](C)CC[C@]3(CCC(=O)[C@H]32)[C@@H](C)[C@@H]1O	0.063 (≈ 0.0967 µM)	1 (≈ 1.53 µM)
C=C[C@]1(C)C[C@@H](OC(=O)CSc2cccc(NC(=O)c3cc(F)c(B(O)O)c(F)c3)c2)[C@]2(C)[C@H](C)CC[C@]3(CCC(=O)[C@H]32)[C@@H](C)[C@@H]1O	0.031 (≈ 0.0463 µM)	0.031 (≈ 0.0463 µM)
C=C[C@]1(C)C[C@@H](OC(=O)CSc2cccc(NC(=O)c3cc(B(O)O)cc(C(F)(F)F)c3)c2)[C@]2(C)[C@H](C)CC[C@]3(CCC(=O)[C@H]32)[C@@H](C)[C@@H]1O	0.063 (≈ 0.0898 µM)	0.5 (≈ 0.713 µM)
C=C[C@]1(C)C[C@@H](OC(=O)CSc2cccc(NC(=O)c3cc(F)cc(B(O)O)c3)c2)[C@]2(C)[C@H](C)CC[C@]3(CCC(=O)[C@H]32)[C@@H](C)[C@@H]1O	0.031 (≈ 0.0476 µM)	0.031 (≈ 0.0476 µM)
C=C[C@]1(C)C[C@@H](OC(=O)CSc2cccc(NC(=O)Cc3cccc(B(O)O)c3)c2)[C@]2(C)[C@H](C)CC[C@]3(CCC(=O)[C@H]32)[C@@H](C)[C@@H]1O	0.063 (≈ 0.0973 µM)	0.063 (≈ 0.0973 µM)
C=C[C@]1(C)C[C@@H](OC(=O)CSc2cccc(NC(=O)c3ccc(OC)c(B(O)O)c3)c2)[C@]2(C)[C@H](C)CC[C@]3(CCC(=O)[C@H]32)[C@@H](C)[C@@H]1O	0.031 (≈ 0.0467 µM)	0.031 (≈ 0.0467 µM)
C=C[C@]1(C)C[C@@H](OC(=O)CSc2ccc(NC(=O)c3ccc(B(O)O)cc3F)cc2)[C@]2(C)[C@H](C)CC[C@]3(CCC(=O)[C@H]32)[C@@H](C)[C@@H]1O	0.063 (≈ 0.0967 µM)	4 (≈ 6.14 µM)
C=C[C@]1(C)C[C@@H](OC(=O)CSc2ccc(NC(=O)c3ccc(B(O)O)c(F)c3)cc2)[C@]2(C)[C@H](C)CC[C@]3(CCC(=O)[C@H]32)[C@@H](C)[C@@H]1O	0.063 (≈ 0.0967 µM)	16 (≈ 24.6 µM)
C=C[C@]1(C)C[C@@H](OC(=O)CSc2cccc(NC(=O)c3cccc(B(O)O)c3)c2)[C@]2(C)[C@H](C)CC[C@]3(CCC(=O)[C@H]32)[C@@H](C)[C@@H]1O	0.063 (≈ 0.0994 µM)	0.063 (≈ 0.0994 µM)
C=C[C@]1(C)C[C@@H](OC(=O)CSc2cccc(NC(=O)c3cc(OC)cc(B(O)O)c3)c2)[C@]2(C)[C@H](C)CC[C@]3(CCC(=O)[C@H]32)[C@@H](C)[C@@H]1O	0.031 (≈ 0.0467 µM)	0.031 (≈ 0.0467 µM)
C=C[C@]1(C)C[C@@H](OC(=O)CSc2cccc(NC(=O)c3ccc(B(O)O)c([N+](=O)[O-])c3)c2)[C@]2(C)[C@H](C)CC[C@]3(CCC(=O)[C@H]32)[C@@H](C)[C@@H]1O	0.063 (≈ 0.0928 µM)	0.063 (≈ 0.0928 µM)
C=C[C@]1(C)C[C@@H](OC(=O)CS[C@@H]2CC[C@@H](NC(=O)c3ccc4c(c3)B(O)OC4)C[C@H]2O)[C@]2(C)[C@H](C)CC[C@]3(CCC(=O)[C@H]32)[C@@H](C)[C@@H]1O	0.063 (≈ 0.0944 µM)	4 (≈ 5.99 µM)
C=C[C@]1(C)C[C@@H](OC(=O)CSc2ccccc2NC(=O)c2ccc3c(c2)B(O)OC3)[C@]2(C)[C@H](C)CC[C@]3(CCC(=O)[C@H]32)[C@@H](C)[C@@H]1O	0.063 (≈ 0.0976 µM)	1 (≈ 1.55 µM)
C=C[C@]1(C)C[C@@H](OC(=O)CSc2cccc(NCc3ccccc3B(O)O)c2)[C@]2(C)[C@H](C)CC[C@]3(CCC(=O)[C@H]32)[C@@H](C)[C@@H]1O	0.031 (≈ 0.05 µM)	0.031 (≈ 0.05 µM)
C=C[C@]1(C)C[C@@H](OC(=O)CSc2cccc(NC(=O)c3ccc(B4OC(C)(C)C(C)(C)O4)cc3)c2)[C@]2(C)[C@H](C)CC[C@]3(CCC(=O)[C@H]32)[C@@H](C)[C@@H]1O	0.063 (≈ 0.088 µM)	0.063 (≈ 0.088 µM)
C=C[C@]1(C)C[C@@H](OC(=O)CSc2cccc(NC(=O)c3ccc(B(O)O)c(F)c3)c2)[C@]2(C)[C@H](C)CC[C@]3(CCC(=O)[C@H]32)[C@@H](C)[C@@H]1O	0.063 (≈ 0.0967 µM)	16 (≈ 24.6 µM)
C=C[C@]1(C)C[C@@H](OC(=O)CSc2cccc(NC(=O)c3ccc(C)c(B(O)O)c3)c2)[C@]2(C)[C@H](C)CC[C@]3(CCC(=O)[C@H]32)[C@@H](C)[C@@H]1O	0.031 (≈ 0.0479 µM)	0.031 (≈ 0.0479 µM)
C=C[C@]1(C)C[C@@H](OC(=O)CSc2cccc(NC(=O)c3cccc(B4OC(C)(C)C(C)(C)O4)c3)c2)[C@]2(C)[C@H](C)CC[C@]3(CCC(=O)[C@H]32)[C@@H](C)[C@@H]1O	0.063 (≈ 0.088 µM)	0.063 (≈ 0.088 µM)
C=C[C@]1(C)C[C@@H](OC(=O)CSc2cccc(NC(=O)c3ccc(F)c(B(O)O)c3)c2)[C@]2(C)[C@H](C)CC[C@]3(CCC(=O)[C@H]32)[C@@H](C)[C@@H]1O	0.063 (≈ 0.0967 µM)	16 (≈ 24.6 µM)

Compound	MIC (Staphylococcus aureus) [µg/mL]	MIC [1] [µg/mL]
C=C[C@]1(C)C[C@@H](OC(=O)CSc2ccc(NC(=O)c3ccc(F)c(B(O)O)c3)cc2)[C@]2(C)[C@H](C)CC[C@]3(CCC(=O)[C@H]32)[C@@H](C)[C@@H]1O	0.063 (≈ 0.0967 µM)	16 (≈ 24.6 µM)
C=C[C@]1(C)C[C@@H](OC(=O)CSc2cccc(NC(=O)Cc3ccc(B(O)O)cc3)c2)[C@]2(C)[C@H](C)CC[C@]3(CCC(=O)[C@H]32)[C@@H](C)[C@@H]1O	0.063 (≈ 0.0973 µM)	0.063 (≈ 0.0973 µM)
C=C[C@]1(C)C[C@@H](OC(=O)CSc2ccc(NC(=O)c3ccc(B(O)O)cc3)cc2)[C@]2(C)[C@H](C)CC[C@]3(CCC(=O)[C@H]32)[C@@H](C)[C@@H]1O	0.063 (≈ 0.0994 µM)	0.5 (≈ 0.789 µM)
C=C[C@]1(C)C[C@@H](OC(=O)CSc2cccc(NCc3ccc(B(O)O)cc3)c2)[C@]2(C)[C@H](C)CC[C@]3(CCC(=O)[C@H]32)[C@@H](C)[C@@H]1O	0.063 (≈ 0.102 µM)	0.063 (≈ 0.102 µM)
22-(3-(((5-Borono-3-pyridinyl)carbonyl)amino)phenylsulfanyl)-22-deoxypleuromutilin	0.25	0.25
C=C[C@]1(C)C[C@@H](OC(=O)CSc2cccc(NC(=O)c3cc(B(O)O)ccc3F)c2)[C@]2(C)[C@H](C)CC[C@]3(CCC(=O)[C@H]32)[C@@H](C)[C@@H]1O	0.063 (≈ 0.0967 µM)	0.063 (≈ 0.0967 µM)
C=C[C@]1(C)C[C@@H](OC(=O)CSc2cccc(NC(=O)c3ccc(B(O)O)c(F)c3F)c2)[C@]2(C)[C@H](C)CC[C@]3(CCC(=O)[C@H]32)[C@@H](C)[C@@H]1O	0.031 (≈ 0.0463 µM)	0.031 (≈ 0.0463 µM)
C=C[C@]1(C)C[C@@H](OC(=O)CSc2cccc(NC(=O)c3cc(N)cc(B(O)O)c3)c2)[C@]2(C)[C@H](C)CC[C@]3(CCC(=O)[C@H]32)[C@@H](C)[C@@H]1O	0.063 (≈ 0.0971 µM)	0.063 (≈ 0.0971 µM)
C=C[C@]1(C)C[C@@H](OC(=O)CSc2cccc(NC(=O)c3ccc(B(O)O)cc3[N+](=O)[O-])c2)[C@]2(C)[C@H](C)CC[C@]3(CCC(=O)[C@H]32)[C@@H](C)[C@@H]1O	0.25 (≈ 0.368 µM)	0.25 (≈ 0.368 µM)
C=C[C@]1(C)C[C@@H](OC(=O)CSc2cccc(NC(=O)c3ccc(B(O)O)o3)c2)[C@]2(C)[C@H](C)CC[C@]3(CCC(=O)[C@H]32)[C@@H](C)[C@@H]1O	0.5 (≈ 0.802 µM)	0.063 (≈ 0.101 µM)
C=C[C@]1(C)C[C@@H](OC(=O)CSc2ccc(NC(=O)c3cccc(B(O)O)c3)cc2)[C@]2(C)[C@H](C)CC[C@]3(CCC(=O)[C@H]32)[C@@H](C)[C@@H]1O	0.031 (≈ 0.0489 µM)	0.031 (≈ 0.0489 µM)
C=C[C@]1(C)C[C@@H](OC(=O)CSc2cccc(NCc3cccc(B(O)O)c3)c2)[C@]2(C)[C@H](C)CC[C@]3(CCC(=O)[C@H]32)[C@@H](C)[C@@H]1O	0.063 (≈ 0.102 µM)	0.125 (≈ 0.202 µM)
C=C[C@]1(C)C[C@@H](OC(=O)CSc2cccc(NC(=O)c3cc(C)cc(B(O)O)c3)c2)[C@]2(C)[C@H](C)CC[C@]3(CCC(=O)[C@H]32)[C@@H](C)[C@@H]1O	0.031 (≈ 0.0479 µM)	0.031 (≈ 0.0479 µM)
C=C[C@]1(C)C[C@@H](OC(=O)CSc2cccc(NC(=O)c3ccc(B(O)O)cc3Cl)c2)[C@]2(C)[C@H](C)CC[C@]3(CCC(=O)[C@H]32)[C@@H](C)[C@@H]1O	0.063 (≈ 0.0943 µM)	1 (≈ 1.5 µM)
C=C[C@]1(C)C[C@@H](OC(=O)CSc2cccc(NC(=O)c3ccc(B(O)O)cc3F)c2)[C@]2(C)[C@H](C)CC[C@]3(CCC(=O)[C@H]32)[C@@H](C)[C@@H]1O	0.063 (≈ 0.0967 µM)	0.063 (≈ 0.0967 µM)
C=C[C@]1(C)C[C@@H](OC(=O)CSc2cccc(NC(=O)c3ccc(B(O)O)c(OC)c3)c2)[C@]2(C)[C@H](C)CC[C@]3(CCC(=O)[C@H]32)[C@@H](C)[C@@H]1O	0.031 (≈ 0.0467 µM)	0.031 (≈ 0.0467 µM)
C=C[C@]1(C)C[C@@H](OC(=O)CSc2cccc(NC(=O)c3ccc(B(O)O)s3)c2)[C@]2(C)[C@H](C)CC[C@]3(CCC(=O)[C@H]32)[C@@H](C)[C@@H]1O	0.063 (≈ 0.0985 µM)	0.063 (≈ 0.0985 µM)
C=C[C@]1(C)C[C@@H](OC(=O)CSc2cccc(NC(=O)c3ccc(B(O)O)c(Cl)c3)c2)[C@]2(C)[C@H](C)CC[C@]3(CCC(=O)[C@H]32)[C@@H](C)[C@@H]1O	0.063 (≈ 0.0943 µM)	1 (≈ 1.5 µM)
C=C[C@]1(C)C[C@@H](OC(=O)CSc2ccc(NC(=O)c3ccc4c(c3)B(O)OC4)cc2)[C@]2(C)[C@H](C)CC[C@]3(CCC(=O)[C@H]32)[C@@H](C)[C@@H]1O	0.016 (≈ 0.0248 µM)	0.25 (≈ 0.387 µM)
